Test results as given in patent US8133471B2, “CLK-peptide and SLK-peptide” (New York University, priority 2003, dated 2012).

How the values were obtained:
[1] = system: bFGF-induced angiogenesis in chick chorioallantoic membrane (CAM); assay: bFGF-induced angiogenesis in the chick CAM model; assay type: in vivo
Description: FIG. 3A, FIG. 3B, and FIG. 3C depict a chick chorioallantoic membrane (CAM) without bFGF-induced angiogenesis, a CAM following bFGF-induced angiogenesis, and a CAM treated with CLK-peptide after bFGF-induced angiogenesis, respectively.
FIG. 4 is a chart which illustrates quantification of CAM angiogenic blood vessels following bFGF-induced angiogenesis without subsequent CLK-peptide treatment and CAM angiogenic blood vessels following bFGF-induced angiogenesis with subsequent CLK-peptide treatment.
Angiogenesis was induced within the chorioallantoic membrane (CAM) of 10-day old chick embryos with bFGF. Twenty-four hours later, 8-10 of the embryos were treated with a single intravenous injection of CLK-peptide (100 ug/embryo). At the end of a 3-day incubation period, the CAM tissues were removed for analysis. […] (FIGS. 3 (a),(b),(c)) The single injection of CLK-peptide inhibited bFGF by greater than 95%. […] Eight to ten chick embryos were tested in each of the two groups, and the experiment was repeated three times for a total of 24-30 chick embryos tested.

[2] = system: Human melanoma cells (M21); assay: M21 cell adhesion to denatured or native collagen type-IV or fibronectin (Example 9); assay type: cell-based
Procedure: Non-tissue culture treated 48-well plates were coated with denatured collagen type-IV at 10 μg/ml. […] Cell adhesion was quantified by measuring the O.D. of eluted dye at 600 nm. Data bars represent the mean O.D.±standard deviation from triplicate wells. Assays were completed 2 to 3 times with similar results.
Non-tissue culture treated 48-well plates were coated with native collagen type-IV or fibronectin at 10 μg/ml. Human melanoma cells (M21) were allowed to attach to the coated wells in the presence or absence of CLK-Peptide or control peptide CTW at 0-100 μg/ml. Cell adhesion was quantified by measuring the O.D. of eluted dye at 600 nm. Data bars represent the mean O.D.±standard deviation from triplicate wells. Assays were completed 2 to 3 times with similar results. A. Adhesion to native collagen type-IV. B. Adhesion to Fibronectin.
Adhesion assays were performed to study the effects of CLK-peptide on tumor cell adhesion in vitro. Microtiter wells were coated with either native collagen type-IV or the control ECM protein fibronectin. Malignant melanoma cells (M21) were allowed to bind to the coated substrates in the presence or absence of CLK peptide or a control peptide, CTW.

[3] = system: Glioblastoma (GL261) cells; assay: GL261 glioblastoma cell adhesion to collagen type-IV; assay type: cell-based, murine
Procedure: FIG. 21 Effects of CLK-Peptide on Glioblastoma Cell Adhesion to Denatured Collagen Type-IV.
To assess the functional significance of the HUI77/CLK cryptic epitope, cell adhesion assays using a glioblastoma cell line were performed. Microtiter plates were coated with denatured collagen type-IV (10 μg/ml). Glioblastoma (GL261) cells were resuspended in adhesion buffer in the presence or absence of CLK-peptide or a non-specific control (CTW) peptide (50 μg/ml) and the […] were incubated in the coated wells for 30 minutes. Non-attached cells were removed by washing, and attached cells quantified by staining with crystal violet.

GL261 tumor cells = assay: GL261 cell migration on denatured collagen type-IV (transwell); assay type: cell-based, murine; details: 50 μg/ml; 6 hours; versus controls
Procedure: FIG. 22 Effects of CLK-Peptide on Tumor Cell Migration. In cell migration assays, CLK-peptide (50 μg/ml) inhibited GL261 cell migration on denatured collagen type-IV by approximately 50% as compared to control.
The effects of CLK-peptide on invasive tumor cell migration and proliferation in vitro were examined. Membranes from transwell chambers and microtiter wells (in proliferation assays) were coated with denatured collagen type-IV (10 μg/ml). GL261 cells were resuspended in either migration buffer or proliferation buffer in the presence or absence of CLK-peptide or control (50 μg/ml). In the cell migration experiments, GL261 tumor cells were allowed to migrate for 6 hours. Tumor cells that had migrated to the underside of the coated membranes were quantified by staining with crystal violet, and the optical densities of cell-associated dye were measured with a microplate reader at a wavelength of 600 nm.

[4] = system: denatured collagen type-IV; assay: 99Tc-CLK-Peptide competitive binding to denatured collagen type-IV (gamma counter); details: collagen 10 μg/ml; 99Tc-CLK-peptide 10 μg/ml
Procedure: FIG. 18 Inhibition of 99Tc-CLK-Peptide binding by unlabeled HUI77.
FIG. 19 Inhibition of Binding of Labeled CLK-Peptide to Denatured Collagen Type-IV by mAb HUI77. Denatured collagen type-IV (10 μg/ml) was coated on microtiter wells and binding of 99Tc-labeled CLK-Peptide in the presence or absence of unlabeled CLK-peptide or mAb HUI77 was measured. As shown in the figure, 99Tc-CLK-peptide (10 μg/ml, 50 μl/well) specifically binds to denatured collagen type-IV (first bar from left). […] 99Tc-CLK-peptide was also allowed to bind to denatured collagen type-IV in the presence or absence of Mab HUI77 (fourth and fifth bars from left). […] These findings provide further evidence that the CLK-peptide binds to a similar if not identical epitope recognized by Mab HUI77.
^99Tc-CLK-Peptide was used in competitive binding studies to further characterize the CLK epitope. To evaluate the ability of HUI77 to compete with binding to denatured type-IV collagen, type-IV collagen was denatured at 60° C. for 15 minutes at a concentration of […] in PBS. […] The supernatant, washes and collagen-coated wells were counted in a gamma counter (1 minute counts in duplicate).
In addition, denatured collagen type-IV (10 μg/ml) was coated on microtiter wells and binding of ^99Tc-labeled CLK-Peptide in the presence or absence of either unlabeled CLK-peptide or mAb HUI77 was measured using a gamma counter. […]

inhibition of 99Tc-CLK-peptide binding to denatured collagen type-IV [4]: dose-dependent inhibition
Substance: H-CLKQNGGNFSLG-OH [CLK-peptide, NH2-C-L-K-Q-N-G-G-N-F-S-L-G-COOH]
adverse effects following injection ([1]; chick embryos, 100 ug/embryo intravenous): No adverse effects | number of branching vessels within the area of the filter disc ([1]; single intravenous injection 100 ug/embryo): dramatic reduction | inhibition of bFGF (induced angiogenesis) ([1]; single intravenous injection 100 ug/embryo, 3-day incubation): greater than 95% | effect on M21 cell adhesion to fibronectin ([2]; 0-100 μg/ml): Neither CLK-Peptide nor the control peptide had any effect | effect on M21 cell adhesion to native triple helical collagen type-IV ([2]; 0-100 μg/ml): Neither CLK-Peptide nor the control peptide had any effect | maximal inhibition of M21 cell attachment to denatured collagen type-IV ([2]; at 100 μg/ml): approximately 65% | inhibition of glioblastoma cell adhesion to denatured collagen type-IV ([3]; 50 μg/ml, 30 minutes): 90% | effect on glioblastoma cell adhesion to native intact collagen type-IV ([3]; data not shown): no effect | inhibition of GL261 cell migration on denatured collagen type-IV (GL261 tumor cells): approximately 50%
